# According to patent US20150087586A1, “PEGYLATED C-PEPTIDE” (Cebix, Inc., priority 2012, published 2015):
# Assay: Pharmacokinetic study of unmodified C-peptide in beagle dogs, single S.C. dose, plasma ELISA
# Format: in vivo
# Conditions: single S.C. dose 0.5 mg/kg
# Description: A pharmacokinetic (PK) study was conducted to determine the C-peptide PK profile with unmodified C-peptide in beagle dogs.
# Two male and one female dog received S.C. the unmodified synthetic human C-peptide (0.5 mg/kg; 0.025 mL/kg) formulated in phosphate buffered saline (20 mg/mL). Dogs were bled by venipuncture and blood samples were collected at predetermined time points over 14 days. Plasma samples were obtained after centrifugation of the blood (3,000 rpm for 10 minutes) and stored at −80° C. until analysis. A CRO with Good Laboratory Practice (GLP) capabilities (MicroConstants, Inc.; San Diego, Calif.) performed the bioanalytical work. […] Results were expressed as C-peptide concentrations. For the PK analysis, the below quantitation level (BQL) was treated as zero and nominal time points were used for all calculations. PK parameters were determined by standard model independent methods based on the individual plasma concentration-time data for each animal using model 200 in WinNonlin Professional 5.2.1 (Pharsight Corp., Mountain View, Calif.).
smiles,measurement,setting,value
CC(C)C[C@H](NC(=O)[C@H](C)NC(=O)[C@H](CC(C)C)NC(=O)[C@@H]1CCCN1C(=O)[C@H](CCC(N)=O)NC(=O)[C@H](CC(C)C)NC(=O)[C@H](CO)NC(=O)CNC(=O)[C@H](C)NC(=O)CNC(=O)[C@@H]1CCCN1C(=O)CNC(=O)CNC(=O)CNC(=O)[C@H](CC(C)C)NC(=O)[C@H](CCC(=O)O)NC(=O)[C@@H](NC(=O)[C@H](CCC(N)=O)NC(=O)CNC(=O)[C@@H](NC(=O)[C@H](CCC(N)=O)NC(=O)[C@H](CC(C)C)NC(=O)[C@H](CC(=O)O)NC(=O)[C@H](CCC(=O)O)NC(=O)[C@H](C)NC(=O)[C@@H](N)CCC(=O)O)C(C)C)C(C)C)C(=O)N[C@@H](CCC(=O)O)C(=O)NCC(=O)N[C@@H](CO)C(=O)N[C@@H](CC(C)C)C(=O)N[C@@H](CCC(N)=O)C(=O)O [CP-AQ],tolerability (clinical abnormalities),14 days observation,well tolerated
same,time until circulating levels of C-peptide were below quantitation level (BQL),plasma,BQL within half a day
